The record followed here is patent US9187490B2, “Dimeric IAP inhibitors” (TetraLogic Pharmaceuticals Corporation, priority 2005, dated 2015).

SMILES strings stand for the structures. Some results are limits rather than exact numbers.

The first experiment deals with T1, XIAP-BIR3 (Homo sapiens, UniProt P98170).
T1 construct: 40 nM of XIAP-BIR3 for 15 min at RT
T1 sequence (P98170 241-356 limits assumed): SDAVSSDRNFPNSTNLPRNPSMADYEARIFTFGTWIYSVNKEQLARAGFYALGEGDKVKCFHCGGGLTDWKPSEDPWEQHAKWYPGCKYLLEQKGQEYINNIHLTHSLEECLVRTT
The experiment in a line: XIAP BIR-3 fluorescence polarization binding assay. The following applies: 5 nM AbuRPF-K(5-Fam)-NH2, 40 nM XIAP-BIR3, 15 min RT, pH 7.5; read-out: KD Range. How it is done: Following incubation, the polarization values (mP) were measured on a Victor^2V using a 485 nm excitation filter and a 520 nm emission filter. IC50 values were determined from the plot using nonlinear least-squares analysis using GraphPad Prism.
In the case of `CNC(C)C(=O)NC(C(=O)N1CCCC1Cc1c(-c2ccc(-c3c(CC4CCCN4C(=O)C(NC(=O)C(C)NC)C(C)(C)C)c4ccc(F)cc4n3CCO)cc2)n(CCO)c2cc(F)ccc12)C(C)(C)C` (single isomer, unassigned) [Entry 60], the Kd is 1000 to 10000 nM.
The same measure, in the same setting: next, `CC(N)C(=O)NC(C(=O)N1CCCC1Cc1c(-c2ccc(-c3oc4ccccc4c3CC3CCCN3C(=O)C(NC(=O)C(C)N)C(C)C)cc2)oc2ccccc12)C(C)C` (single isomer, unassigned) [Entry 61]: above 10000 nM.
On to `CNC(C)C(=O)NC(C(=O)N1CCCC1Cc1c(-c2ccc(-c3c(CC4CCCN4C(=O)C(NC(=O)C(C)NC)C(C)(C)C)c4ccc(F)cc4n3CCO)cc2)n(CCO)c2cc(F)ccc12)C(C)(C)C` (single isomer, unassigned) [Entry 487], for which the Kd is below 100 nM.
Regarding `CC(C)[C@H](NC(=O)[C@H](C)N)C(=O)N1CCC[C@H]1Cc1c(/C=C/c2oc3ccccc3c2C[C@@H]2CCCN2C(=O)[C@@H](NC(=O)[C@H](C)N)C(C)C)oc2ccccc12` [Entry 2], the equilibrium dissociation constant (Kd) was below 100 nM.
For `CC(C)[C@H](NC(=O)[C@H](C)N)C(=O)N1CCC[C@H]1Cc1c(CCc2oc3ccccc3c2C[C@@H]2CCCN2C(=O)[C@@H](NC(=O)[C@H](C)N)C(C)C)oc2ccccc12` [Entry 3], the dissociation constant Kd is below 100 nM.
On to `CC(C)[C@H](NC(=O)CN)C(=O)N1CCC[C@H]1Cc1c(-c2ccc(-c3oc4ccccc4c3C[C@@H]3CCCN3C(=O)[C@@H](NC(=O)[C@H](C)N)C(C)C)cc2)oc2ccccc12` [Entry 4], for which the dissociation constant (Kd) is below 100 nM.
As for `C[C@H](N)C(=O)N[C@H](C(=O)N1CCC[C@H]1Cc1c(-c2ccc(-c3oc4ccccc4c3C[C@@H]3CCCN3C(=O)[C@@H](NC(=O)[C@H](C)N)C(C)(C)C)cc2)oc2ccccc12)C(C)(C)C` [Entry 7], the Kd was below 100 nM.
Take `CN[C@@H](C)C(=O)N[C@H](C(=O)N1CCC[C@H]1Cc1c(-c2ccc(-c3oc4ccccc4c3C[C@@H]3CCCN3C(=O)[C@@H](NC(=O)[C@H](C)NC)C(C)(C)C)cc2)oc2ccccc12)C(C)(C)C` [Entry 8]: the Kd is below 100 nM.
The same measure, in the same setting: for `CC[C@H](N)C(=O)N[C@H](C(=O)N1CCC[C@H]1Cc1c(-c2ccc(-c3oc4ccccc4c3C[C@@H]3CCCN3C(=O)[C@@H](NC(=O)[C@@H](N)CC)C(C)(C)C)cc2)oc2ccccc12)C(C)(C)C` [Entry 9] the value was 100 to 1000 nM; for `CN[C@@H](C)C(=O)N[C@H](C(=O)N1CCC[C@H]1Cc1c(-c2ccc(-c3oc4ccccc4c3C[C@@H]3CCCN3C(=O)[C@@H](NC(=O)[C@H](C)NC)C(C)C)cc2)oc2ccccc12)C(C)C` [Entry 10], below 100 nM.
Same read-out and setting: for `CC[C@H](N)C(=O)N[C@H](C(=O)N1CCC[C@H]1Cc1c(-c2ccc(-c3oc4ccccc4c3C[C@@H]3CCCN3C(=O)[C@@H](NC(=O)[C@@H](N)CC)C(C)C)cc2)oc2ccccc12)C(C)C` [Entry 11] the value was below 100 nM.
The same measure, in the same setting: for `C[C@H](N)C(=O)N[C@H](C(=O)N1CCC[C@H]1Cc1c(-c2ccc(-c3oc4ccccc4c3C[C@@H]3CCCN3C(=O)[C@@H](NC(=O)[C@H](C)N)C3CCCCC3)cc2)oc2ccccc12)C1CCCCC1` [Entry 12] the value was below 100 nM; for `CN[C@@H](C)C(=O)N[C@H](C(=O)N1CCC[C@H]1Cc1c(-c2ccc(-c3oc4ccccc4c3C[C@@H]3CCCN3C(=O)[C@@H](NC(=O)[C@H](C)NC)C3CCCCC3)cc2)oc2ccccc12)C1CCCCC1` [Entry 13], below 100 nM.
Consider `CC[C@H](N)C(=O)N[C@H](C(=O)N1CCC[C@H]1Cc1c(-c2ccc(-c3oc4ccccc4c3C[C@@H]3CCCN3C(=O)[C@@H](NC(=O)[C@@H](N)CC)C3CCCCC3)cc2)oc2ccccc12)C1CCCCC1` [Entry 14], for which the Kd is 100 to 1000 nM.
Take `CN[C@@H](C)C(=O)N[C@H](C(=O)N1CCC[C@H]1Cc1c(-c2ccc(-c3oc4ccccc4c3C[C@@H]3CCCN3C(=O)[C@@H](NC(=O)[C@H](C)NC)[C@@H](C)O)cc2)oc2ccccc12)[C@@H](C)O` [Entry 15]: the Kd is below 100 nM.
Regarding `CN[C@@H](C)C(=O)N[C@H](C(=O)N1CCC[C@H]1Cc1c(-c2ccc(-c3[nH]c4cc(F)ccc4c3C[C@@H]3CCCN3C(=O)[C@@H](NC(=O)[C@H](C)NC)C(C)C)cc2)[nH]c2cc(F)ccc12)C(C)C` [Entry 16], the Kd was below 100 nM.
`CC(C)[C@H](NC(=O)[C@H](C)N)C(=O)N1CCC[C@H]1Cc1c(-c2ccc(-c3[nH]c4cc(F)ccc4c3C[C@@H]3CCCN3C(=O)[C@@H](NC(=O)[C@H](C)N)C(C)C)s2)[nH]c2cc(F)ccc12` [Entry 17]: the Kd is below 100 nM.
`CN[C@@H](C)C(=O)N[C@H](C(=O)N1CCC[C@H]1Cc1c(-c2ccc(-c3[nH]c4cc(F)ccc4c3C[C@@H]3CCCN3C(=O)[C@@H](NC(=O)[C@H](C)NC)C3CCCCC3)s2)[nH]c2cc(F)ccc12)C1CCCCC1` [Entry 18]: the Kd was below 100 nM.
The same measure, in the same setting: for `C[C@H](N)C(=O)N[C@H](C(=O)N1CCC[C@H]1Cc1c(-c2ccc(-c3[nH]c4cc(F)ccc4c3C[C@@H]3CCCN3C(=O)[C@@H](NC(=O)[C@H](C)N)C3CCCCC3)cc2)[nH]c2cc(F)ccc12)C1CCCCC1` [Entry 19] the value was below 100 nM; for `CN[C@@H](C)C(=O)N[C@H](C(=O)N1CCC[C@H]1Cc1c(-c2ccc(-c3[nH]c4cc(F)ccc4c3C[C@@H]3CCCN3C(=O)[C@@H](NC(=O)[C@H](C)NC)C3CCCCC3)cc2)[nH]c2cc(F)ccc12)C1CCCCC1` [Entry 20], below 100 nM; for `CN[C@@H](C)C(=O)N[C@H](C(=O)N1C[C@H](O)C[C@H]1Cc1c(-c2ccc(-c3[nH]c4ccccc4c3C[C@@H]3C[C@@H](O)CN3C(=O)[C@@H](NC(=O)[C@H](C)NC)C(C)C)cc2)[nH]c2ccccc12)C(C)C` [Entry 21], 100 to 1000 nM.
Consider `CN[C@@H](C)C(=O)N[C@H](C(=O)N1C[C@H](O)C[C@H]1Cc1c(-c2ccc(-c3[nH]c4ccccc4c3C[C@@H]3C[C@@H](O)CN3C(=O)[C@@H](NC(=O)[C@H](C)NC)C(C)(C)C)cc2)[nH]c2ccccc12)C(C)(C)C` [Entry 22], for which the Kd fell in the range of 100 to 1000 nM.
In the case of `CN[C@@H](C)C(=O)N[C@H](C(=O)N1CCC[C@H]1Cc1c(-c2ccc(-c3[nH]c4ccc(F)cc4c3C[C@@H]3CCCN3C(=O)[C@@H](NC(=O)[C@H](C)NC)C(C)C)cc2)[nH]c2ccc(F)cc12)C(C)C` [Entry 23], the Kd was below 100 nM.
On to `CN[C@@H](C)C(=O)N[C@H](C(=O)N1C[C@@H](O)C[C@H]1Cc1c(-c2ccc(-c3[nH]c4ccccc4c3C[C@@H]3C[C@H](O)CN3C(=O)[C@@H](NC(=O)[C@H](C)NC)C(C)(C)C)cc2)[nH]c2ccccc12)C(C)(C)C` [Entry 24], for which the dissociation constant (Kd) is below 100 nM.
In the case of `CN[C@@H](C)C(=O)N[C@H](C(=O)N1CCC[C@H]1Cc1c(-c2ccc(-c3[nH]c4cc(F)ccc4c3C[C@@H]3CCCN3C(=O)[C@@H](NC(=O)[C@H](C)NC)[C@@H](C)OCc3ccccc3)cc2)[nH]c2cc(F)ccc12)[C@@H](C)OCc1ccccc1` [Entry 25], the Kd was below 100 nM.
Turning to `CN[C@@H](C)C(=O)N[C@H](C(=O)N1CCC[C@H]1Cc1c(-c2ccc(-c3[nH]c4cc(F)ccc4c3C[C@@H]3CCCN3C(=O)[C@@H](NC(=O)[C@H](C)NC)[C@@H](C)OCc3ccccc3)cc2)[nH]c2cc(F)ccc12)[C@@H](C)O` [Entry 26], the equilibrium dissociation constant (Kd) was below 100 nM.
The same measure, in the same setting: next, `CN[C@@H](C)C(=O)N[C@H](C(=O)N1CCC[C@H]1Cc1c(-c2ccc(-c3[nH]c4cc(F)ccc4c3C[C@@H]3CCCN3C(=O)[C@@H](NC(=O)[C@H](C)NC)[C@@H](C)O)cc2)[nH]c2cc(F)ccc12)[C@@H](C)O` [Entry 27]: below 100 nM; `CN[C@@H](C)C(=O)N[C@H](C(=O)N1C[C@@H](O)C[C@H]1Cc1c(-c2ccc(-c3[nH]c4cc(F)ccc4c3C[C@@H]3C[C@H](O)CN3C(=O)[C@@H](NC(=O)[C@H](C)NC)[C@@H](C)O)cc2)[nH]c2cc(F)ccc12)[C@@H](C)O` [Entry 28]: below 100 nM; `CN[C@@H](C)C(=O)N[C@H](C(=O)N1C[C@@H](O)C[C@H]1Cc1c(-c2ccc(-c3[nH]c4cc(F)ccc4c3C[C@@H]3C[C@H](O)CN3C(=O)[C@@H](NC(=O)[C@H](C)NC)C(C)C)cc2)[nH]c2cc(F)ccc12)C(C)C` [Entry 29]: below 100 nM.
On to `CN[C@@H](C)C(=O)N[C@H](C(=O)N1C[C@@H](O)C[C@H]1Cc1c(-c2ccc(-c3[nH]c4cc(F)ccc4c3C[C@@H]3C[C@H](O)CN3C(=O)[C@@H](NC(=O)[C@H](C)NC)C(C)(C)C)cc2)[nH]c2cc(F)ccc12)C(C)(C)C` [Entry 30], for which the Kd was below 100 nM.
Turning to `CN[C@@H](C)C(=O)N[C@H](C(=O)N1CCC[C@H]1Cc1c(-c2ccc(-c3[nH]c4cc(F)ccc4c3C[C@@H]3CCCN3C(=O)[C@@H](NC(=O)[C@H](C)NC)[C@@H](C)OCc3ccccc3)cc2)[nH]c2cc(F)ccc12)[C@@H](C)O` [Entry 32], the Kd is below 100 nM.
As for `CN[C@@H](C)C(=O)N[C@H](C(=O)N1CCC[C@H]1Cc1c(-c2ccc(-c3[nH]c4cc(F)ccc4c3C[C@@H]3CCCN3C(=O)[C@@H](NC(=O)[C@H](C)NC)[C@@H](C)OCc3ccccc3)cc2)[nH]c2cc(F)ccc12)[C@@H](C)OCc1ccccc1` [Entry 33], the Kd is below 100 nM.
The same measure, in the same setting: next, `CN[C@@H](C)C(=O)N[C@H](C(=O)N1C[C@@H](O)C[C@H]1Cc1c(-c2ccc(-c3[nH]c4ccccc4c3C[C@@H]3C[C@H](O)CN3C(=O)[C@@H](NC(=O)[C@H](C)NC)C(C)(C)C)cc2)[nH]c2ccccc12)C(C)(C)C` [Entry 34]: below 100 nM; `CN[C@@H](C)C(=O)N[C@H](C(=O)N1CCC[C@H]1Cc1c(-c2ccc(-c3[nH]c4ccc(F)cc4c3C[C@@H]3CCCN3C(=O)[C@@H](NC(=O)[C@H](C)NC)C(C)C)cc2)[nH]c2ccc(F)cc12)C(C)C` [Entry 35]: below 100 nM.
Regarding `CN[C@@H](C)C(=O)N[C@H](C(=O)N1C[C@H](O)C[C@H]1Cc1c(-c2ccc(-c3[nH]c4ccccc4c3C[C@@H]3C[C@@H](O)CN3C(=O)[C@@H](NC(=O)[C@H](C)NC)C(C)(C)C)cc2)[nH]c2ccccc12)C(C)(C)C` [Entry 36], the Kd was 100 to 1000 nM.

Staying with this experiment, now noted: XIAP BIR-3, FIG. 1.
Turning to `CC(C)[C@H](NC(=O)[C@H](C)N)C(=O)N1CCC[C@H]1Cc1c(-c2ccc(-c3[nH]c4cc(F)ccc4c3C[C@@H]3CCCN3C(=O)[C@@H](NC(=O)[C@H](C)N)C(C)C)s2)[nH]c2cc(F)ccc12` [Entry 17], the “increase in binding affinity relative to the Smac tetrapeptide (AVPI)” value is on record as 30,000 fold.
